Results published in patent US12435031B2, “Compound with broad-spectrum antibacterial activity and its antibacterial composition” (CHINA AGRICULTURAL UNIVERSITY, priority 2023, dated 2025).
Converted amounts (≈) assume the structure as drawn. Where two headings read alike, the source gives them in different places.

Key:
[1] = tested on: Aspergillus flavus ATCC 11492; assay: MIC against pathogenic fungi, Aspergillus flavus; type: cell-based; conditions: ATCC11492
[2] = Pharmacokinetics in rabbit plasma after intramuscular injection; type: in vivo, rabbits; conditions: for Cmax: 20 mg/kg
Experimental: In order to investigate the metabolic residues of BAB159 in model animals, rabbits were used as animal models to quantitatively analyze the levels of BAB159 in rabbit plasma. Male Chinese white rabbits weighing around 2 kg were adaptively fed for one week. Then, 2 mL of BAB159 suspension was injected into the left hind thigh muscle of the rabbits at a dose of 20 mg/kg b.w. Blood samples were collected from the ear vein at 8 time points, including 0.5, 1, 2, 4, 6, 8, 12, and 24 hours after administration. After pre-treatment of the plasma samples, UPLC-MS/MS detection was performed.

Clostridium perfringens [3] = assay: microbe, parasite or virus in culture; type: cell-based; conditions: read-out: MICs
[4] = tested on: Trichophyton ATCC MTA-4439; assay: MIC against pathogenic fungi, Trichophyton; type: cell-based; conditions: Trichophyton, read-out: MICs
MRSA T144 [5] = conditions: BAB159 at its MIC concentration, OD 600 nm over 24 hours
Bacillus = assay: microbe, parasite or virus in culture; type: cell-based
[6] = MIC against pathogenic fungi, Candida ATCC 6258; type: cell-based; conditions: ATCC6258; Candida albicans ATCC 6258 (Candida krusei ATCC 6258)
Enterococcus = assay: microbe, parasite or virus in culture; type: cell-based
MRSA T144 [7] = conditions: Galleria mellonella infected with MRSA T144, 2 mg/kg b.w. 1 hour after infection, within 5 days
Clostridium perfringens [8] = assay: microbe, parasite or virus in culture; type: cell-based; conditions: Clostridium perfringens
[9] = tested on: Staphylococcus aureus ATCC 25923; assay: Growth curve (OD 600 nm, 24 h), Staphylococcus aureus; conditions: Staphylococcus aureus ATCC 25923, BAB159 at its MIC concentration, OD 600 nm over 24 hours
[10] = tested on: Aspergillus niger ATCC 96918; assay: MIC against pathogenic fungi, Aspergillus niger; type: cell-based
Staphylococcus = assay: microbe, parasite or virus in culture; type: cell-based
[11] = tested on: Candida albicans, Aspergillus flavus, Aspergillus niger, and Trichophyton; assay: MIC against common clinical pathogenic fungi (summary); type: cell-based; conditions: range over species
Haemophilus = assay: MIC, broth microdilution, Haemophilus; type: cell-based
Streptococcus = assay: microbe, parasite or virus in culture; type: cell-based
Mycobacterium smegmatis = assay: microbe, parasite or virus in culture; type: cell-based; conditions: Mycolicibacterium smegmatis, read-out: MICs
MRSA T144 [12] = conditions: C57BL/6J mice infected i.p. with MRSA T144, 10 mg/kg b.w. 1 hour after infection, within 3 days
[13] = male, Chinese white, im, rabbit plasma, intramuscular injection, 20 mg/kg b.w.
[14] = male, Chinese white, rabbit, plasma, im, rabbits, intramuscular injection, 20 mg/kg b.w.
[15] = read-out: minimum inhibitory concentration (MIC50)

## O=C(Nc1ccc(C(F)(F)F)c(Cl)c1Cl)c1cc(Cl)ccc1O [BAB159]
[1]
  MIC: 1 µg/mL (≈ 2.6 µM)
[2]; AUC after intramuscular injection in rabbits to MIC50 against Staphylococcus
  AUIC: 109
[2]; [13]
  AUC: 1710 ng·h/mL
  Tmax: 6 h
[2]; male, Chinese white, rabbit, plasma, im, rabbit plasma, intramuscular injection, 20 mg/kg b.w., read-out: Cmax
  Cmax: 207 ng/mL
[2]; [14]
  AUC(0-t): 1640 ± 70.5 ng·h/mL
  half-life: 16.1 ± 3.6 h
[2]; rabbit plasma, intramuscular injection, 20 mg/kg b.w.
  Cmax: 148.2 ± 13.05 ng/mL
Clostridium perfringens [3]
  MIC: 0.25 µg/mL (≈ 0.65 µM)
[4]
  MIC: 0.125 µg/mL (≈ 0.325 µM)
MRSA T144 [5]
  growth inhibition (growth curve): significantly inhibit the growth
Bacillus; read-out: MICs
  MIC: 0.01 µg/mL (≈ 0.026 µM)
Bacillus; [15]
  MIC50: 0.01 µg/mL (≈ 0.026 µM)
[6]
  MIC: 1 µg/mL (≈ 2.6 µM)
Enterococcus; read-out: MICs
  MIC: 0.25 µg/mL (≈ 0.65 µM)
Enterococcus; [15]
  MIC50: 0.25 µg/mL (≈ 0.65 µM)
MRSA T144 [7]
  protective rate: 70%
Clostridium perfringens [8]
  MIC50: 0.25 µg/mL (≈ 0.65 µM)
  MIC90: 0.5 µg/mL (≈ 1.3 µM)
Clostridium perfringens [8]; read-out: MIC value against Clostridium perfringens, strain A3-1 (A-type)
  MIC: 0.5 µg/mL (≈ 1.3 µM)
Clostridium perfringens [8]; read-out: MIC value against Clostridium perfringens, strain A3-2 (A-type)
  MIC: 0.25 µg/mL (≈ 0.65 µM)
Clostridium perfringens [8]; read-out: MIC value against Clostridium perfringens, strain A57-1 (A-type)
  MIC: 0.25 µg/mL (≈ 0.65 µM)
Clostridium perfringens [8]; read-out: MIC value against Clostridium perfringens, strain B4 (B-type)
  MIC: 0.5 µg/mL (≈ 1.3 µM)
Clostridium perfringens [8]; read-out: MIC value against Clostridium perfringens, strain B5 (B-type)
  MIC: 0.25 µg/mL (≈ 0.65 µM)
Clostridium perfringens [8]; read-out: MIC value against Clostridium perfringens, strain C3 (C-type)
  MIC: 0.5 µg/mL (≈ 1.3 µM)
Clostridium perfringens [8]; read-out: MIC value against Clostridium perfringens, strain C8 (C-type)
  MIC: 0.25 µg/mL (≈ 0.65 µM)
Clostridium perfringens [8]; read-out: MIC value against Clostridium perfringens, strain C59-1 (C-type)
  MIC: 0.25 µg/mL (≈ 0.65 µM)
Clostridium perfringens [8]; read-out: MIC value against Clostridium perfringens, strain D14B (D-type)
  MIC: 0.25 µg/mL (≈ 0.65 µM)
Clostridium perfringens [8]; read-out: MIC value against Clostridium perfringens, strain F5-2 (F-type)
  MIC: 0.25 µg/mL (≈ 0.65 µM)
Clostridium perfringens [8]; read-out: MIC value against Clostridium perfringens, strain F6-1 (F-type)
  MIC: 0.25 µg/mL (≈ 0.65 µM)
Clostridium perfringens [8]; read-out: MIC value against Clostridium perfringens, strain F6-2 (F-type)
  MIC: 0.5 µg/mL (≈ 1.3 µM)
Clostridium perfringens [8]; read-out: MIC value against Clostridium perfringens, strain F6-2-1 (F-type)
  MIC: 0.5 µg/mL (≈ 1.3 µM)
Clostridium perfringens [8]; read-out: MIC value against Clostridium perfringens, strain F6-2-2 (F-type)
  MIC: 0.25 µg/mL (≈ 0.65 µM)
Clostridium perfringens [8]; read-out: MIC value against Clostridium perfringens, strain F7-1 (F-type)
  MIC: 0.5 µg/mL (≈ 1.3 µM)
Clostridium perfringens [8]; read-out: MIC value against Clostridium perfringens, strain F8-1 (F-type)
  MIC: 0.5 µg/mL (≈ 1.3 µM)
Clostridium perfringens [8]; read-out: MIC value against Clostridium perfringens, strain H12-1 (H-type)
  MIC: 0.25 µg/mL (≈ 0.65 µM)
Clostridium perfringens [8]; read-out: MIC value against Clostridium perfringens, strain H12-2 (H-type)
  MIC: 0.25 µg/mL (≈ 0.65 µM)
Clostridium perfringens [8]; read-out: MIC value against Clostridium perfringens, strain H13-1 (H-type)
  MIC: 0.5 µg/mL (≈ 1.3 µM)
Clostridium perfringens [8]; read-out: MIC value against Clostridium perfringens, strain H14-1 (H-type)
  MIC: 0.5 µg/mL (≈ 1.3 µM)
Clostridium perfringens [8]; read-out: MIC value against Clostridium perfringens, strain H14-2 (H-type)
  MIC: 0.5 µg/mL (≈ 1.3 µM)
Clostridium perfringens [8]; read-out: MIC value against Clostridium perfringens, strain H14-4 (H-type)
  MIC: 0.5 µg/mL (≈ 1.3 µM)
Clostridium perfringens [8]; read-out: MIC value against Clostridium perfringens, strain H15-1 (H-type)
  MIC: 0.25 µg/mL (≈ 0.65 µM)
Clostridium perfringens [8]; read-out: MIC value against Clostridium perfringens, strain H15-2 (H-type)
  MIC: 0.5 µg/mL (≈ 1.3 µM)
Clostridium perfringens [8]; read-out: MIC value against Clostridium perfringens, strain H15-3 (H-type)
  MIC: 0.25 µg/mL (≈ 0.65 µM)
Clostridium perfringens [8]; read-out: MIC value against Clostridium perfringens, strain H16 (H-type)
  MIC: 0.25 µg/mL (≈ 0.65 µM)
Clostridium perfringens [8]; read-out: highest MIC value, against 26 tested strains of Clostridium perfringens
  MIC: 0.5 µg/mL (≈ 1.3 µM)
[9]
  growth inhibition (growth curve): significantly inhibit the growth
[10]; Aspergillus niger ATCC 96918
  MICs: 0.5 µg/mL
[10]; Aspergillus niger, ATCC96918, Aspergillus niger ATCC 96918
  MIC: 0.25 µg/mL (≈ 0.65 µM)
Staphylococcus; Staphylococcus
  MIC50: 0.0156 µg/mL (≈ 0.0406 µM)
Staphylococcus; Staphylococcus, read-out: MICs
  MIC: 0.01 µg/mL (≈ 0.026 µM)
Staphylococcus; [15]
  MIC50: 0.01 µg/mL (≈ 0.026 µM)
[11]
  MIC: 0.5 to 1 µg/mL (≈ 1.3 to 2.6 µM)
Haemophilus; Haemophilus, read-out: minimum inhibitory concentration (MIC50)
  MIC50: 16 µg/mL (≈ 41.6 µM)
Haemophilus; gram-negative bacteria such as Haemophilus
  MIC: 8 to 32 µg/mL (≈ 20.8 to 83.2 µM)
Streptococcus; read-out: MICs
  MIC: 0.125 µg/mL (≈ 0.325 µM)
Streptococcus; [15]
  MIC50: 0.125 µg/mL (≈ 0.325 µM)
Mycobacterium smegmatis
  MIC: 2 µg/mL (≈ 5.2 µM)
MRSA T144 [12]
  protective rate: 100%
